# Measurements taken from PMC11374673, “Discovery of isoquinoline sulfonamides as allosteric gyrase inhibitors with activity against fluoroquinolone-resistant bacteria” (Nature Chemistry, 2024).
# What was measured:
# [1] = biological target: T1, E. coli GyrA S97L/GyrB gyrase (Escherichia coli, UniProt P0AES4, S97L); assay: Gyrase supercoiling inhibition, GyrA S97L variant; assay type: biochemical
# T1 construct: represents the first full-length E. coli gyrase structure in complex with an intact DNA molecule; 10xHis; 2xStrep (Twin-Strep); made in house
# Method: Of this stock solution, 27 µl was aliquoted for each reaction in 1.5 ml Eppendorf tubes and supplemented with 0.6 µl of the appropriate compound dilution or corresponding solvent with a final DMSO concentration of 2%. The reactions were started with 3 µl of enzyme (1 U for WT gyrase retrieved from Inspiralis Limited or 25–30 nM gyrase variants purified in house) in dilution buffer (50 mM Tris–HCl (pH 7.5), 100 mM KCl, 2 mM DTT, 1 mM EDTA and 50% (wt/vol) glycerol) for a final volume of 30 µl. Reactions were run at 37 °C for 30 min and stopped with the addition of 30 µl STEB buffer (40% (wt/vol) sucrose, 100 mM Tris–HCl pH 8, 100 mM EDTA, 0.5 mg ml^−1 bromophenol blue) and 30 µl of a chloroform:isoamyl alcohol solution (24:1 vol/vol). After brief vortexing and centrifugation at 2,300g for 1 min, 20 µl of the aqueous phase was loaded onto 1% (wt/vol) agarose gels in TAE (Tris–acetate […]) gel. The gels were run at 85 V for 2 h followed by staining (15 min) in 1 µg ml^−1 ethidium bromide and destaining (5–10 min) in water. DNA was visualized (602/50, UV Trans, auto optimal exposure) with a ChemiDoc MP (Bio-Rad Laboratories Inc., equipped with ImageLab Touch Software v2.0.0.27) and the percentage of supercoiled DNA relative to the total amount material per lane was determined with ImageLab 6.1 software (Bio-Rad Laboratories Inc.) or ImageJ[47] software. […]
# E. coli DNA gyrase = biological target: T2, E. coli DNA gyrase (Escherichia coli, UniProt P0AES4); assay: Gyrase supercoiling inhibition, gel-based; assay type: biochemical
# T2 construct: purchased Inspiralis Limited
# Method: Of this stock solution, 27 µl was aliquoted for each reaction in 1.5 ml Eppendorf tubes and supplemented with 0.6 µl of the appropriate compound dilution or corresponding solvent with a final DMSO concentration of 2%. The reactions were started with 3 µl of enzyme (1 U for WT gyrase retrieved from Inspiralis Limited or 25–30 nM gyrase variants purified in house) in dilution buffer (50 mM Tris–HCl (pH 7.5), 100 mM KCl, 2 mM DTT, 1 mM EDTA and 50% (wt/vol) glycerol) for a final volume of 30 µl. Reactions were run at 37 °C for 30 min and stopped with the addition of 30 µl STEB buffer (40% (wt/vol) sucrose, 100 mM Tris–HCl pH 8, 100 mM EDTA, 0.5 mg ml^−1 bromophenol blue) and 30 µl of a chloroform:isoamyl alcohol solution (24:1 vol/vol). After brief vortexing and centrifugation at 2,300g for 1 min, 20 µl of the aqueous phase was loaded onto 1% (wt/vol) agarose gels in TAE ([…]) gel. The gels were run at 85 V for 2 h followed by staining (15 min) in 1 µg ml^−1 ethidium bromide and destaining (5–10 min) in water. […] IC50 curves were generated in GraphPad Prism (v9.0.0) using the non-linear regression curve fit variable slope with four parameters and least squares regression. A. baumannii and P. aeruginosa gyrase supercoiling inhibition assays were set up in the same way as E. coli gyrase supercoiling assays. The enzyme was retrieved from Inspiralis Ltd. (PAG1001 and ABG1001) and tested in-house for activity with ×5 U enzyme used for each reaction.
Structure (SMILES),supercoiling inhibition of GyrA S97L variant [1],IC50 (E. coli DNA gyrase),fold less potent than LEI-800 (E. coli DNA gyrase; supercoiling IC50 ratio),fold more potent than CIP (E. coli DNA gyrase; supercoiling IC50 ratio)
O=S(=O)(NC[C@H]1CC[C@@H](c2ccc(-c3ccc(F)nc3)cc2)N1)c1cccc2cnccc12 [LEI-801],highly resistant,440 nM,13 fold,
O=S(=O)(NC[C@@H]1CC[C@H](c2ccc(-c3cccnc3)cc2)N1)c1cccc2cnccc12 [LEI-800],highly resistant,35 nM,,> 25 fold
